According to patent publication US20110318798A1, “REMOVAL OF INHIBITORS OF MICROBIAL FE[…] INHIBITOR-CONTAINING COMPOSITIONS” (priority 2010, published 2011):

Experiments:
[1] = tested on: Clostridium; conditions: in the fermentation medium
[2] = tested on: butanol-producing Clostridium strain; type: cell-based

| SMILES | concentration at which it becomes inhibitory to growth of Clostridium and subsequent production of butanol [1] | transformation of un-fermentable hydrolysate into fermentable feedstock supporting microbial growth and butanol production ([2]; 2 g/L to 5 g/L metal salt, pH 9 to 10.5, 20° C. to 40° C.) | butanol concentration after microbial fermentation for 72 hours ([2]; hydrolysate treated with 3 g/L […] or 2 g/l ferric chloride, pH 9.5, room temperature (about 20° C.), fermentation 10 ml, 30° C.) |
| --- | --- | --- | --- |
| O=CO [Formic acid] | 0.3 to 0.4 g/L |  |  |
| [Cl][Fe]([Cl])[Cl] [ferric chloride] |  | successful | 7.69 g/L |
